Results published in patent publication US20080226565A1, “Anticariogenic Proteins & Peptides & Saccharides” (priority 2004, published 2008).

Columns and labels:
[1] = test system: aerobes isolated from the oral cavity; experiment: Susceptibility (MIC), agar dilution, aerobes from the oral cavity; assay type: cell-based, aerobic bacteria; conditions: for activity against aerobes: explored range 0.2 to 3.5 mg/ml
Procedure: (§1) The investigations included more than hundred strains isolated from the oral cavity: : anaerobes, microaerophilic bacteria, aerobes, Streptococcus spp. and yeast like fungi. The microorganisms were isolated from saliva, mucosal membrane, gingival pockets and caries decay. The susceptibility (MIC) of bacteria and yeastlike fungi were determined by means of plate dilution technique in agar.
(§2) The investigated samples were dissolved in sterile distilled water (immediately before the experiment) to obtain the following concentrations: 3.5, 1.7, 0.8, 0.4 and 0.2 mg/ml and were added into appropriate agar. The plates were inoculated using a Steers multipoint inoculator. Inoculum contained 10^6 CFU/spot. In each experimental series, the growth of strains on the culture medium without the compounds investigated was checked. The concentration at which no macroscopic growth of the microbes was observed on the medium was regarded as the lowest concentration, inhibiting the growth of microbes (MIC). The examinations of the susceptibility of microbes to the peptides were carried out twice.
Anaerobes. The susceptibility of bacteria was determined by means of the agar dilution methods with Brucella agar supplemented with 5% defibrinated sheep's blood, menadione and hemin. Sample solutions with concentrations from of 3.5-0.2 mg/ml were added into agar. The agar plate without investigated samples was included as a bacterial growth control. The inoculum of 10^6 CFU/ml was applied to the agar plates with Steers replicator. Incubation was performed for 48 hrs at 37° C. (310° K) in anaerobic jars containing a mixture of 10% CO2, 10% H2 and 80% N2, in the presence of palladium catalyst and indicator of anaerobiosis. Microaerophilic bacteria. The susceptibility of bacteria was determined by means of the agar dilution methods with Brucella agar supplemented with 5% sheep's blood. Samples solutions with concentrations from of 3.5- 0.2 mg/ml were added into agar. The agar plate without investigated samples was included as a bacterial growth control. The inoculum of 10^6 CFU/ml was applied to the agar plates with Steers replicator. The incubation was performed at 37° C. in anaerobic jars with Campy Pak (bio Merieux) for 48 hours. Streptococcus spp. The susceptibility of bacteria was determined by means of the agar dilution methods with Mueller-Hinton agar supplemented with 5% sheep's blood. Samples solutions with concentrations from of 3.5- 0.2 mg/ml were added into agar. The agar plate without investigated samples was included as a bacterial growth control. […] The susceptibility to investigated samples was determined by means of the plate dilution technique in Mueller-Hinton agar. […] The susceptibility of fungi to investigated samples was determined by means of the plate dilution technique in Sabouraud's agar. […]

[2] = Determination of the PF-value: Knoop micro hardness of tooth samples coated with product, then saliva and acetic acid (in-vitro); design: species or system human
From the text: The capacity to protect teeth against caries can be measured with a technique well known in the art (U.S. Pat. No. 5,279,814). Demineralization with acid, decreases the hardness of the tooth surface. The hardness can be quantified indirectly by measuring the depth of penetration of a needle in the surface (measurement of micro hardness). With this procedure, so called “Knoop” method, the needle is penetrating the surface under the pressure of constant weight and leaves a mark on the surface that allows the calculation of the depth of penetration. The more the tooth is suffering from demineralization, the softer its surface will get and the larger the depth of penetration will be (Knoop F., Peters C. G., Emerson W. B., A Sensitive Pyramidal Diamond Tool for Identation Measurments, J. Res. Natn. Bur. Stand. 23, 39-61 (1939).
The procedure includes the determination of the hardness of a human tooth sample with the Knoop method. Subsequently, the tooth is treated with an experimental protecting product outside the oral cavity.
It is cleaned softly with a paper towel until the coating is invisible.
Subsequently the tooth sample is submerged in a batch of human saliva in order to simulate the conditions in the oral cavity. After removal from the saliva batch (after 30 min.) it is treated with acid over a constant time period of 30 min. at 37° C. The acid is washed away, the tooth is dried on air and the hardness is measured again. The change in hardness (delta P in μm) is obtained by comparing with the hardness of the tooth before treatment. This experiment is repeated on other tooth samples. The effect of acid on unprotected teeth is obtained by carrying out the same procedure but without the use of an experimental protecting product (delta Pa). The protecting capacity (“PF” protection factor) of an experimental protecting compound can be defined as: […]
The ability of a product to protect teeth (PF-value) is determined with the Knoop method. A tooth sample, size 3×3×3 mm is cut from a human tooth and embedded into polymerizing resin in such a way that the surface of the tooth sample appears on the surface of the (resin) cube after the resin has become solid. The surface of the tooth is mechanically polished with rotating silicon carbide abrasive paper (Struers P1200-P2400-P4000) and the micro hardness of the enamel is determined with a Knoop diamant needle (Leitz-Wetzlar;
microdurometer “Durimet”; weight 50 gr; penetration-time: 30 seconds (Collys et al., J. Dent. Res. 1990; 69: 458-462)).
The penetration leaves a mark on the tooth surface, which is related to the depth of penetration (μm) and which can be analyzed under the microscope. […] The determination of the depth of penetration is repeated six times on each of the tooth samples and the average value is calculated. In order to determine the effect of acid on the hardness of the surface, use is made of an acetic acid buffer from Merck (pH 5; 0.1N). One drop of acid is positioned on the enamel for a period of 30 minutes at 37° C. The sample is cleaned with demineralized water and dried. The hardness is measured again according to the method of Knoop. This procedure is repeated 4 times, which means that the sample has been subjected to acid for a total period of two hours.
A graph (Y: penetration depth μm; X: 5 treatment stages) can be made on the basis of 5 average values (each of them based on six measurement), one obtained before treatment with acid, and the other 4 obtained after each of the 4 treatment-stages with acid. A logaritmic regressionline is calculated.

[3] = test system: anaerobes isolated from the oral cavity; experiment: Susceptibility (MIC), agar dilution, anaerobes from the oral cavity; assay type: cell-based, anaerobic bacteria; conditions: for activity against anaerobes: explored range 0.2 to 3.5 mg/ml
Procedure: as §1, §2
Anaerobes. The susceptibility of bacteria was determined by means of the agar dilution methods with Brucella agar supplemented with 5% defibrinated sheep's blood, menadione and hemin. Sample solutions with concentrations from of 3.5-0.2 mg/ml were added into agar. The agar plate without investigated samples was included as a bacterial growth control. The inoculum of 10^6 CFU/ml was applied to the agar plates with Steers replicator. Incubation was performed for 48 hrs at 37° C. (310° K) in anaerobic jars containing a mixture of 10% CO2, 10% H2 and 80% N2, in the presence of palladium catalyst and indicator of anaerobiosis. Microaerophilic bacteria. The susceptibility of bacteria was determined by means of the agar dilution methods with Brucella agar supplemented with 5% sheep's blood. Samples solutions with concentrations from of 3.5- 0.2 mg/ml were added into agar. The agar plate without investigated samples was included as a bacterial growth control. The inoculum of 10^6 CFU/ml was applied to the agar plates with Steers replicator. The incubation was performed at 37° C. in anaerobic jars with Campy Pak (bio Merieux) for 48 hours. Streptococcus spp. The susceptibility of bacteria was determined by means of the agar dilution methods with Mueller-Hinton agar supplemented with 5% sheep's blood. Samples solutions with concentrations from of 3.5- 0.2 mg/ml were added into agar. The agar plate without investigated samples was included as a bacterial growth control. The inoculum of 10^6 CFU/ml was applied to the agar plates with Steers replicator. Incubation was performed for 24 hrs at 37° C. (310° K) in anaerobic jars containing a mixture of 10% CO2 and 90% N2. Aerobes. The susceptibility to investigated samples was determined by means of the plate dilution technique in Mueller-Hinton agar. Samples solutions with concentrations from of 3.5- 0.2 mg/ml were added into agar. The agar plate without investigated samples was included as a bacterial growth control. The inoculum of 10^6 CFU/ml was applied to the agar plates with Steers replicator. Plates were incubated for 24 hrs in 37° C. under aerobic conditions. Yeast like fungi. The susceptibility of fungi to investigated samples was determined by means of the plate dilution technique in Sabouraud's agar. Samples solutions with concentrations from of 3.5- 0.2 mg/ml were added into agar. […]

Substance | aerobes harvested from the oral cavity that are inhibited ([1]; at 0.2 to 0.4 mg/ml, 2 from 17) [%] | PF factor ([2]; 3.6% product/water w/w, with CaCl2.2H2O and KH2PO4) | anaerobes harvested from the oral cavity that are inhibited ([3]; at 0.2 to 0.4 mg/ml, 17 from 24 species) [%] | mic-value (minimum inhibitory concentration) ([3]; gram-negative anaerobes, often, incl. Prevotella nigrescens, Porphyromonas gingivalis, Fusobacterium nucleatum) [µg/mL] | activity against aerobes [1] | PF factor ([2]; 1.5% product/water w/w) | activity against anaerobes [3] | PF factor ([2]; 7.8% product/water w/w)
Epsilon-polylysine (elys; e-polylysine) [Product 6] | 12 | 70 | 71 | ≤ 200 | – | – | – | –
bisphosphonylated epsilon-polylysine [bisphosphonylated e-polylysine] | – | – | – | – | not active | 99 | good activity | –
casein phosphopeptide epsilon-polylysine copolymer [(CPP x elys)n] | – | – | – | – | not active | – | less effective | 94
